Experimental data from PMC7225226, “Fluorescence labeling of a NaV1.7-targeted peptide for near-infrared nerve visualization” (EJNMMI Research, 2020).
pIC50: −log10 of the molar value. “And” between values parts separate entries of the source, which are not always exact repeats. Equal values may be shown once.

How the values were obtained:
NaV1.7 = assay: Binding to NaV1.7 in vivo post-intravenous injection, blocked by excess unlabeled Hs1a; set-up: species or system mouse
Protocol: (§1) Female athymic nude mice (4–8 weeks old, athymic-nude (outbred) (stock#:088; Envigo, USA) were allowed to acclimatize at the MSKCC vivarium for 1 week with ad libitum food and water prior to the experimental procedure. For imaging experiments, animals were sacrificed 30 min post-tail vein injection of Hs1a-FL, Hs1a/Hs1a-FL, or PBS. All animal experiments were performed in accordance with institutional guidelines and approved by the MSKCC Institutional Animal Care and Use Committee, following the NIH guidelines for animal welfare.
For the confocal microscopy experiments, 5 μm cryosections of sciatic nerve tissues embedded in optimal cutting temperature compound (OCT) were used to determine the distribution and localization of Hs1a-FL from mice previously injected with the fluorescent agent Hs1a-FL (4 nmol, 45 μM of Hs1a-FL in 100 μL of PBS), the blocking solution Hs1a/Hs1a-FL (Hs1a-FL, 45 μM, 4 nmol and Hs1a 120 μM, 12 nmol in 100 μL PBS), or 100 μL of PBS. These resected nerves were incubated with Hoechst 33342 (20 μM, 1 nmol in 50 μL of PBS) to counterstain nuclei, which were subsequently embedded in Mowiol mounting medium. Fresh tissues were counterstained with Hoechst 33342 (20 μM, 1 nmol in 50 μL of PBS) and samples placed directly on a microscope slide for detection of the fluorescence signal of the fluorescent peptide. […]

[1] = Ex vivo epifluorescence biodistribution in organs; set-up: species or system mouse; conditions: 30 min post-injection
Protocol: as §1
(§2) One group of animals was intravenously injected with Hs1a-FL (4 nmol, 45 μM of Hs1a-FL in 100 μL of PBS, n = 3). A second group of animals was injected with Hs1a and Hs1a-FL (Hs1a-FL, 45 μM, 4 nmol and Hs1a, 120 μM, 12 nmol in 100 μL PBS, n = 3) or PBS (n = 3). Animals were sacrificed 30 min post-injection and epifluorescence images obtained. Epifluorescence images of the right sciatic nerve (RSN) and left sciatic nerve (LSN) were obtained in situ from all the mice in the study. Epifluorescence images of the biodistribution included RSN, LSN, muscle, heart, kidney, liver, and brain and were acquired with an IVIS Spectrum imaging system (PerkinElmer) using a predetermined filter set (excitation = 710/45 nm, emission = 800–820 nm). Autofluorescence was removed through spectral unmixing. Semiquantitative analysis of the Hs1a-FL signal was conducted by measuring the average radiant efficiency (in units of [p/s/cm^2/sr]/[μW/cm^2]) in regions of interest (ROIs) that were placed on all resected nerves and as well in all organs from the biodistribution under white light guidance.
Statistical analyses were performed using GraphPad Prism 8. Unless otherwise stated, data points represent mean values, and error bars represent standard deviations of biological replicates. All p values were calculated using an unpaired t test. Statistical significance was considered for p values < 0.05 and as follows: ns = not significant, *p < 0.05, **p < 0.01, ***p < 0.001.

nerve and muscle = assay: Nerve-to-muscle comparison, epifluorescence; type: in vivo, mouse
Protocol: as §1
as §2, with “Autofluorescence was removed through spectral unmixing. Semiquantitative analysis of the Hs1a-FL signal was conducted by measuring the average radiant efficiency (in units of [p/s/cm^2/sr]/[μW/cm^2]) in regions of interest (ROIs) that were placed on all resected nerves and as well in all organs from the biodistribution under white light guidance.” left out
(§3) Statistical analyses were performed using GraphPad Prism 8. […] All p values were calculated using an unpaired t test. […]

mouse sciatic nerve = assay: Epifluorescence imaging of resected sciatic nerves after intravenous injection; type: in vivo; conditions: 30 min post-injection
Protocol: as §1
as §2, with “Autofluorescence was removed through spectral unmixing. Semiquantitative analysis of the Hs1a-FL signal was conducted by measuring the average radiant efficiency (in units of [p/s/cm^2/sr]/[μW/cm^2]) in regions of interest (ROIs) that were placed on all resected nerves and as well in all organs from the biodistribution under white light guidance.” left out
as §3

[2] = test system: mouse sciatic nerve (NaV1.7); assay: Confocal microscopy of sciatic nerve after intravenous injection; type: in vivo; conditions: i.v. Hs1a-FL 4 nmol (45 μM in 100 μL PBS), with or without Hs1a 12 nmol (120 μM, 3-fold molar excess); 30 min post-injection; athymic nude mice
Protocol: as §1
For the confocal microscopy experiments, 5 μm cryosections of sciatic nerve tissues embedded in optimal cutting temperature compound (OCT) were used to determine the distribution and localization of Hs1a-FL from mice previously injected with the fluorescent agent Hs1a-FL (4 nmol, 45 μM of Hs1a-FL in 100 μL of PBS), the blocking solution Hs1a/Hs1a-FL (Hs1a-FL, 45 μM, 4 nmol and Hs1a 120 μM, 12 nmol in 100 μL PBS), or 100 μL of PBS. These resected nerves were incubated with Hoechst 33342 (20 μM, 1 nmol in 50 μL of PBS) to counterstain nuclei, which were subsequently embedded in Mowiol mounting medium. Fresh tissues were counterstained with Hoechst 33342 (20 μM, 1 nmol in 50 μL of PBS) and samples placed directly on a microscope slide for detection of the fluorescence signal of the fluorescent peptide.

hNaV1.1 = molecular target: T1, hNaV1.1 (Homo sapiens, UniProt P35498); assay: Whole-cell patch-clamp, HEK293 cells stably expressing hNaV1.1; type: cell-based; conditions: QPatch 16x automated whole-cell patch-clamp, holding potential -60 mV, five concentrations (2 nM to 10 μM), 0.1% BSA, pH 7.4, ~22 °C; each point average of 3–11 cells
T1 construct: host or cells: HEK293
Protocol: (§4) HEK293 cells stably expressing the human NaV channel β1 subunit (hNaVβ1) in combination with the α subunit hNaV1.1, hNaV1.2, hNaV1.3, hNaV1.4, hNaV1.5, hNaV1.6, or hNaV1.7 (Scottish Biomedical, Glasgow, UK) were cultured in DMEM/F-12 media (1:1), supplemented with 10% fetal bovine serum, […] geneticin, and […] non-essential amino acids (all reagents from Invitrogen) at 37 °C and in 5% CO2.
(§5) Whole-cell patch-clamp experiments were performed at room temperature using a QPatch 16x automated electrophysiology platform (Sophion Bioscience, Denmark) using 16-channel planar patch-chip plates (QPlates) with a patch-hole diameter of 1 μm and resistance of 2 MΩ. Whole-cell currents were filtered at 5 kHz (8-pole Bessel) and digitized at 25 kHz. A P4 online leak-subtraction protocol was used with non-leak-subtracted currents acquired in parallel. The extracellular solution was 2 mM CaCl2, 1 mM MgCl2, 10 mM HEPES, 4 mM KCl, and 145 mM NaCl at pH 7.4, and the intracellular solution was 140 mM CsF, 1 mM/5 mM EGTA/CsOH, 10 mM HEPES, and 10 mM NaCl at pH 7.3. Hs1a-FL were dissolved in extracellular solution with 0.1% bovine serum albumin (BSA). Concentration-response data were obtained using five concentrations of peptide (2 nM to 10 μM). […] IC50 values were determined from non-linear regression of concentration-response data using GraphPad Prism.

hNaV1.5 = molecular target: T2, hNaV1.5 (Homo sapiens, UniProt Q14524); assay: Whole-cell patch-clamp, HEK293 cells stably expressing hNaV1.5; type: cell-based
T2 construct: host or cells: HEK293
Protocol: as §4, §5

hNaV1.4 = molecular target: T3, hNaV1.4 (Homo sapiens, UniProt P35499); assay: Whole-cell patch-clamp, HEK293 cells stably expressing hNaV1.4; type: cell-based
T3 construct: host or cells: HEK293
Protocol: as §4, §5

hNaV1.2 = molecular target: T4, hNaV1.2 (Homo sapiens, UniProt Q99250); assay: Whole-cell patch-clamp, HEK293 cells stably expressing hNaV1.2; type: cell-based; conditions: QPatch 16x automated whole-cell patch-clamp, holding potential -65 mV, five concentrations (2 nM to 10 μM), 0.1% BSA, pH 7.4, ~22 °C; each point average of 3–11 cells
T4 construct: host or cells: HEK293
Protocol: as §4, §5

hNaV1.3 = molecular target: T5, hNaV1.3 (Homo sapiens, UniProt Q9NY46); assay: Whole-cell patch-clamp, HEK293 cells stably expressing hNaV1.3; type: cell-based; conditions: QPatch 16x automated whole-cell patch-clamp, holding potential -60 mV, five concentrations (2 nM to 10 μM), 0.1% BSA, pH 7.4, ~22 °C; each point average of 3–11 cells
T5 construct: host or cells: HEK293
Protocol: as §4, §5

neuronal sodium channels = assay: Affinity for neuronal sodium channels (summary statement); type: cell-based, human; conditions: automated patch-clamp, HEK293 cells
Protocol: as §4, §5

[3] = at concentrations up to 3 μM, automated patch-clamp

T3 sequence (Q07699 19-218): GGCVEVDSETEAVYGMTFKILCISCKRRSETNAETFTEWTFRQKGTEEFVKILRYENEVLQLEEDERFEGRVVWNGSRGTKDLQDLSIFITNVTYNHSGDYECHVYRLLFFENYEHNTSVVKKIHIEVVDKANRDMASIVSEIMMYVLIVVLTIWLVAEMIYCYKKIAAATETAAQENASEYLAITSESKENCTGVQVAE
T3 sequence (P35499 whole entry): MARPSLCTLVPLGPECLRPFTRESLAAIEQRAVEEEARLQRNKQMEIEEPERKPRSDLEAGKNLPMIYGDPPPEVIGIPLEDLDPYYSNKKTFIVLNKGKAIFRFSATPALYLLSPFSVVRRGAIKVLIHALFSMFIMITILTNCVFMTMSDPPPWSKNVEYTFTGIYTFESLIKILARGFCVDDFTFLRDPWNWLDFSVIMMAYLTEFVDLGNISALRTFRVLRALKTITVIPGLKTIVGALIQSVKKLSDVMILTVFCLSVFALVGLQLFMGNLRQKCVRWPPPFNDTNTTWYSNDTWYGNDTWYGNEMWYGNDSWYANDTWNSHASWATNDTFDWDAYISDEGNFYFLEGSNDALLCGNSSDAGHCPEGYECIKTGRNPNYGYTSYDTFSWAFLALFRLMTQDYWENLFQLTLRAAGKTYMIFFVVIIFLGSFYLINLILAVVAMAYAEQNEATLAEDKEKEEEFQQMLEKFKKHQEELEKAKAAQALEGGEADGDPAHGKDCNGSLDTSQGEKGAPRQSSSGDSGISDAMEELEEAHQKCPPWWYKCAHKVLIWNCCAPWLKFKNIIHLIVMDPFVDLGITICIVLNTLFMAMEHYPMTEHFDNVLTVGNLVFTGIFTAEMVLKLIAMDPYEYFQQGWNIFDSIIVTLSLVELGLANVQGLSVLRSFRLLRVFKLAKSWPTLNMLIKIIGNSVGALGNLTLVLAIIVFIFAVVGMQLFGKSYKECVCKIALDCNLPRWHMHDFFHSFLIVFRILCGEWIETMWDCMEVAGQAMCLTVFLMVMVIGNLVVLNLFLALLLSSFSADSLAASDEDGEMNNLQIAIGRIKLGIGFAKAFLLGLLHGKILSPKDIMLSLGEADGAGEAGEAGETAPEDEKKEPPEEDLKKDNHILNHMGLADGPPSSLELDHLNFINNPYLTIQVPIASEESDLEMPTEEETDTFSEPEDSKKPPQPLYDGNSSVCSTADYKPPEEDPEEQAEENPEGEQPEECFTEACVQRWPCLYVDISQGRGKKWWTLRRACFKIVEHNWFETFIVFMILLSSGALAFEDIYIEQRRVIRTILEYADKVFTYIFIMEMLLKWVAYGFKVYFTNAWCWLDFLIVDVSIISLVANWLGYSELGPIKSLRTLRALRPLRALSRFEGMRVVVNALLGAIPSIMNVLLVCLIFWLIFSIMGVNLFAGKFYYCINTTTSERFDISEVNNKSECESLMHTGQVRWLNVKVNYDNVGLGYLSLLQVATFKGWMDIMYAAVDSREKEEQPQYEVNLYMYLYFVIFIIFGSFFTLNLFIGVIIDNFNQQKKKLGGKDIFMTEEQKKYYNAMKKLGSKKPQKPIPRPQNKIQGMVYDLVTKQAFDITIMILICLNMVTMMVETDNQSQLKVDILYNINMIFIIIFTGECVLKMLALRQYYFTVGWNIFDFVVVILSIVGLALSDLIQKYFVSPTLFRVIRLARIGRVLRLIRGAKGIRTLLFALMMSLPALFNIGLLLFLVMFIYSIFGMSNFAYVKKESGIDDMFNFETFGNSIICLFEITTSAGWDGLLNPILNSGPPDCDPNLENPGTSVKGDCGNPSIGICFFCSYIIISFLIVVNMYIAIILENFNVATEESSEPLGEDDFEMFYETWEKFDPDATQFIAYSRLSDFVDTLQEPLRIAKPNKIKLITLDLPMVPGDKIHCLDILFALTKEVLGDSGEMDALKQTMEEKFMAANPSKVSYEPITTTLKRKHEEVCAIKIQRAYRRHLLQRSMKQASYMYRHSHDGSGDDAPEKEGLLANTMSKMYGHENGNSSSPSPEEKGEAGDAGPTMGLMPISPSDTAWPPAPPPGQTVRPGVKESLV
T2 sequence (Q14524 whole entry): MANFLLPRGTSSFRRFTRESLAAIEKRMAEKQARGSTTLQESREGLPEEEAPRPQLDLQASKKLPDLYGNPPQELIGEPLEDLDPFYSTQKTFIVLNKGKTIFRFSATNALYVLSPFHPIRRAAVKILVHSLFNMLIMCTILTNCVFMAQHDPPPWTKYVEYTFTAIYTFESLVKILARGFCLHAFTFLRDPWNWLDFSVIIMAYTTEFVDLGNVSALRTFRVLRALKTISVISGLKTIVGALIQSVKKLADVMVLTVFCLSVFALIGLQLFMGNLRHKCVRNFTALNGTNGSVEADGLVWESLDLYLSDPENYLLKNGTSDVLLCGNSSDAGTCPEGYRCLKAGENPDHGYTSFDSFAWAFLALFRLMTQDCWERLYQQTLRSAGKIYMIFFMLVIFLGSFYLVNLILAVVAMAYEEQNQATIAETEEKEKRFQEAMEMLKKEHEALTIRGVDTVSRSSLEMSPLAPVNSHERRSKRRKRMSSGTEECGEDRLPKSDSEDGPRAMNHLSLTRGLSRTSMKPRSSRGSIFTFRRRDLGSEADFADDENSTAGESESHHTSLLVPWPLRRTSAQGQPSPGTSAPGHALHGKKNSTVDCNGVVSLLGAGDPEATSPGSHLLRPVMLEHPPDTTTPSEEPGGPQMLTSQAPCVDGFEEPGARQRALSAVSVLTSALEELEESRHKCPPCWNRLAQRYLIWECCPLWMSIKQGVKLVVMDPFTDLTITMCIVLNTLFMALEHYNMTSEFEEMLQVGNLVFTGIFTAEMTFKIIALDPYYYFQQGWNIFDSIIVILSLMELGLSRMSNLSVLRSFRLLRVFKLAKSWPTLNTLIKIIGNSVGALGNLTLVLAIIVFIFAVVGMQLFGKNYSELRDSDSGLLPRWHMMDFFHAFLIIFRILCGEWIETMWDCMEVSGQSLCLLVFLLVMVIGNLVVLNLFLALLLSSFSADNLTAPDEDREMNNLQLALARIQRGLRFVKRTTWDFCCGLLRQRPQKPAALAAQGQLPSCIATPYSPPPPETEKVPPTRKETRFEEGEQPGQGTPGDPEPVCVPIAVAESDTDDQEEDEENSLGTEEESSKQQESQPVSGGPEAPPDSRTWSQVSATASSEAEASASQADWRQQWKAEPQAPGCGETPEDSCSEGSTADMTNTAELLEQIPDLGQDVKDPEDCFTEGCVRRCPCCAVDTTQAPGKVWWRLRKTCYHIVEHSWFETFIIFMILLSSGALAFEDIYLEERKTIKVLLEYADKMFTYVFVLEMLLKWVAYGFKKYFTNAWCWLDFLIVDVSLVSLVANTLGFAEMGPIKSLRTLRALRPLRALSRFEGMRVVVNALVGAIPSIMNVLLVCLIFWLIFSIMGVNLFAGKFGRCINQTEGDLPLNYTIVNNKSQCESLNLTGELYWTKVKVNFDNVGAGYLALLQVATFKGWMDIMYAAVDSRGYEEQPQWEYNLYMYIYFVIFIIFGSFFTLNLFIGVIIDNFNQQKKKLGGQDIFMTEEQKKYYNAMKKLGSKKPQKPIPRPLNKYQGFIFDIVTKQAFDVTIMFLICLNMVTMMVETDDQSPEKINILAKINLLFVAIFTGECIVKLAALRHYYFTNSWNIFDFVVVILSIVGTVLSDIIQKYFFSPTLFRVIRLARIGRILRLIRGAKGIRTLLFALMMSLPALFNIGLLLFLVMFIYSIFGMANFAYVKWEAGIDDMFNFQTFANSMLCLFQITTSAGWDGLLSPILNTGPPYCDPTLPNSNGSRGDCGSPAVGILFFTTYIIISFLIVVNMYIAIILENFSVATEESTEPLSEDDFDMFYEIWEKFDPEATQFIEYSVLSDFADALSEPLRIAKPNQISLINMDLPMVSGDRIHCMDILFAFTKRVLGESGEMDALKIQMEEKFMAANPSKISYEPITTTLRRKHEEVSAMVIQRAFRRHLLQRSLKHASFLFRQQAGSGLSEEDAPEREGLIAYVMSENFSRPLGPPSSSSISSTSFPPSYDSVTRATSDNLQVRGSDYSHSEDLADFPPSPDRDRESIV

Row | Compound | binding to NaV1.7 on the surface of human and mouse nerves (NaV1.7; abstract statement) | binding to NaV1.7 channels in vivo (NaV1.7; post-intravenous injection, mouse, blocked by excess dose of unlabeled Hs1a) | radiant efficiency, brain ([1]; i.v. 4 nmol in 100 μL PBS, IVIS, ex 710/45 nm, em 800–820 nm, mean ± SD, n = 3, PBS group 0.001 ± 0.0005 × 10^7) | radiant efficiency, liver ([1]; i.v. 4 nmol in 100 μL PBS, IVIS, ex 710/45 nm, em 800–820 nm, mean ± SD, n = 3, PBS group 0.002 ± 0.001 × 10^7) | radiant efficiency, kidney ([1]; i.v. 4 nmol in 100 μL PBS, IVIS, ex 710/45 nm, em 800–820 nm, mean ± SD, n = 3, PBS group 0.005 ± 0.004 × 10^7) | liver accumulation ([1]; mouse, i.v. 4 nmol) | nerve-to-muscle contrast (nerve and muscle; epifluorescence visualization of sciatic mouse nerves, abstract statement) | nerve-to-muscle ratio (nerve and muscle; i.v. Hs1a-FL 4 nmol with or without Hs1a 12 nmol (block), 30 min post-injection, epifluorescence, mean ± SD, PBS 2.90 ± 2.76) | visibility / accumulation in resected sciatic nerves (mouse sciatic nerve; i.v. 4 nmol Hs1a-FL alone, epifluorescence) | radiant efficiency of resected sciatic nerves (mouse sciatic nerve; i.v. Hs1a-FL 4 nmol (45 μM in 100 μL PBS), with or without Hs1a 12 nmol (120 μM), IVIS, ex 710/45 nm, em 800–820 nm, mean ± SD, n = 3 mice, Hs1a-FL vs co-injection unpaired t test p < 0.001) | presence of Hs1a-FL signal in sciatic nerve by confocal microscopy [2] | pIC50 (hNaV1.1) | pIC50 (hNaV1.5; QPatch 16x automated whole-cell patch-clamp, holding potential -105 mV, five concentrations (2 nM to 10 μM), 0.1% BSA, pH 7.4, ~22 °C, each point average of 3–11 cells) | inhibition of NaV1.5 (hNaV1.5; [3]) | pIC50 (hNaV1.4; QPatch 16x automated whole-cell patch-clamp, holding potential -75 mV, five concentrations (2 nM to 10 μM), 0.1% BSA, pH 7.4, ~22 °C, each point average of 3–11 cells) | inhibition of NaV1.4 (hNaV1.4; [3]) | pIC50 (hNaV1.2) | pIC50 (hNaV1.3) | affinity for neuronal sodium channels (neuronal sodium channels; ~22 °C) | IC50 range for neuronal NaV channels (neuronal sodium channels; NaV1.1, NaV1.2, NaV1.3, NaV1.6, NaV1.7)
1 | Cy7.5@GNDCLGFWSACNPKNDKCCANLVCSSKHKWCKGKL (disulfide) [Hs1a-FL, NIR-labeled version of Hs1a, Hs1a conjugated to Cy7.5 dye] | specific and stable binding | specifically bind to NaV1.7 channels in vivo | 0.2 ± 0.1 × 10^7 [p/s/cm^2/sr]/[μW/cm^2] | 3.0 ± 2.0 × 10^7 [p/s/cm^2/sr]/[μW/cm^2] | 1.4 ± 1.1 × 10^7 [p/s/cm^2/sr]/[μW/cm^2] | high liver accumulation | favorable nerve-to-muscle contrast | 4.83 ± 8.73 and ~ 4 | clearly visible | 1.6 ± 0.3 × 10^5 [p/s/cm^2/sr]/[μW/cm^2] | confirmed the presence of Hs1a-FL signal |  |  |  |  |  |  |  |  | 
2 | CC(C)C[C@H](NC(=O)[C@H](CCCCN)NC(=O)CNC(=O)[C@H](CCCCN)NC(=O)[C@@H]1CSSC[C@@H]2NC(=O)[C@H](CCCCN)NC(=O)[C@H](CC(=O)O)NC(=O)[C@H](CC(N)=O)NC(=O)[C@H](CCCCN)NC(=O)[C@@H]3CCCN3C(=O)[C@H](CC(N)=O)NC(=O)[C@@H]3CSSC[C@H](NC(=O)[C@H](C(C)C)NC(=O)[C@H](CC(C)C)NC(=O)[C@H](CC(N)=O)NC(=O)[C@H](C)NC(=O)[C@H](CSSC[C@H](NC(=O)[C@H](CC(=O)O)NC(=O)[C@H](CC(N)=O)NC(=O)CN)C(=O)N[C@@H](CC(C)C)C(=O)NCC(=O)N[C@@H](Cc4ccccc4)C(=O)N[C@@H](Cc4c[nH]c5ccccc45)C(=O)N[C@@H](CO)C(=O)N[C@@H](C)C(=O)N3)NC2=O)C(=O)N[C@@H](CO)C(=O)N[C@@H](CO)C(=O)N[C@@H](CCCCN)C(=O)N[C@@H](Cc2c[nH]cn2)C(=O)N[C@@H](CCCCN)C(=O)N[C@@H](Cc2c[nH]c3ccccc23)C(=O)N1)C(=O)O [Hs1a] |  |  |  |  |  |  |  |  |  |  |  | 7.71 | < 5.52 | did not inhibit | < 5.52 | did not inhibit | 7.09 | 6.97 | low nanomolar affinity | low nanomolar range
